Here are results for 17 molecules from patent US7932266B2, “Isoquinoline derivatives as calpain inhibitors” (Consejo Superior de Investigaciones Cientificas, priority 2004, dated 2011).

The IC50 is the concentration that gives 50% inhibition. By melting point is commonly meant the temperature of the solid-liquid transition.

SMILES strings stand for the structures.

The target in data set [1] is T1, calpain I from porcine erythrocyte (Sus scrofa, UniProt P35750).
T1 construct: calpain I from porcine erythrocyte (Calbiochem, Cat No 208712) was used as enzyme; purchased Calbiochem 208712; host or cells: porcine erythrocyte (natural source)
T1 sequence (P35750 1-714): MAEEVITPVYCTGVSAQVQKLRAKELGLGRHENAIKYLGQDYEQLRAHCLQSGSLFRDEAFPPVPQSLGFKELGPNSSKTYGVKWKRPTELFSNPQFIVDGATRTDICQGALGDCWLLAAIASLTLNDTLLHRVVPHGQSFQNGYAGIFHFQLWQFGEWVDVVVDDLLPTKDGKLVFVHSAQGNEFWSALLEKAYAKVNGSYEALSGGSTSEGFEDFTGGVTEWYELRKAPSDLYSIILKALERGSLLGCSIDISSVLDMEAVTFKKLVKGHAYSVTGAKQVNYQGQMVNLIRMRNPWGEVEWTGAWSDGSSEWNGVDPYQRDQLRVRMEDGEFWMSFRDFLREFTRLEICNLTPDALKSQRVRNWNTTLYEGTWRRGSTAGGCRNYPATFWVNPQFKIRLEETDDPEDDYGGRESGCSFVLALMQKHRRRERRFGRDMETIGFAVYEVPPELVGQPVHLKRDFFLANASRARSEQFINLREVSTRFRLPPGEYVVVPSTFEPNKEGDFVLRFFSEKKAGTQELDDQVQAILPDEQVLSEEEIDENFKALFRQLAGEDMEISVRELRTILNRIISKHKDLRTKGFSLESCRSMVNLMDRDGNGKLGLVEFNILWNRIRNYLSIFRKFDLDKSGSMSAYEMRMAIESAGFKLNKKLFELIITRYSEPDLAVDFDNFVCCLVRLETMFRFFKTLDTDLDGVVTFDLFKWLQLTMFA
T1 sequence (P04574 1-266 partner): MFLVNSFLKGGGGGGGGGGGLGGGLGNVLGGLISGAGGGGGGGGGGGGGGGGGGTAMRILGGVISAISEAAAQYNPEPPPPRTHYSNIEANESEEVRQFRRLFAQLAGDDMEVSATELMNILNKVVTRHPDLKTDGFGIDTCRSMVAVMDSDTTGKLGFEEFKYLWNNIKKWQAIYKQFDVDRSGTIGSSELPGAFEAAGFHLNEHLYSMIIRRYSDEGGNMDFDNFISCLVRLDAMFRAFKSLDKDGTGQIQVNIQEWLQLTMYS
Nature of the data set: Enzyme activity test: inhibition of calpain (fluorimetric, BODIPY-FL casein substrate). The class given is biochemical. The conditions noted are these: 7 inhibitor concentrations between 10 nM and 200 μM. An excerpt:
The capacity to inhibit calpain has been quantified in terms of the value of IC50, which is defined as the concentration of inhibitor that reduces the catalytic activity of an enzyme by half. The lower the value of IC50, the more powerful the inhibitor. Inhibition results on calpain I (the most relevant from a physiological point of view) of some compounds of the present invention are shown in table 1 and in FIG. 1. Given that calpain II, also known as milli-calpain, needs a greater amount of Ca^2+ for activation, it might not possibly have such a relevant physiological role since such a concentration of Ca^2+ would cause cell death before the milli-calpain could become activated. For this reason, the inhibition tests have been performed for calpain I, though they can be extrapolated for calpain II.
The calpain inhibition capacity has been quantified in terms of the value of IC50, which is defined as the concentration of inhibitor that reduces the catalytic activity of an enzyme by half. The lower the value of IC50, the more powerful the inhibitor. Inhibition results on calpain I (the most relevant from a physiological point of view) of some compounds of the present invention are shown in table 1 and in FIG. 1.
The experiments were conducted spectrofluorimetrically using a Spectrofluor Tecan Corp 93382 spectrofluorimeter, exciting at […] and measuring at […]. Casein marked with BODIPY-FL® (Molecular Probes) was used as substrate and calpain I from porcine erythrocyte (Calbiochem, Cat No 208712) was used as enzyme. The freeze-dried substrate is component A of the protease assay kit EnzChek® green fluorescence from Molecular Probes (reference # E-6638); component B, known as 20× digestion buffer, contains 13 mL of 200 mM Tris-HCl, pH 7.8 and 2 mM sodium azide. The commercial calpain I that was used has a concentration of 1 mg in 1 mL of aqueous solution (the solution is 20 mM imidazol-HCl, pH 6.8, 1 mM EDTA, 1 mM EGTA, 5 mM β-mercaptoethanol, containing 30% glycerine).
2.5 mL of 20× digestion buffer (component B of the kit from Molecular Probes) was diluted with water to a total volume of 50 mL.
200 μg of freeze-dried substrate (component A of the kit from Molecular Probes) was dissolved in 200 μL of phosphate saline buffer. This solution was decanted into a graduated flask and diluted with the digestion solution to a total volume of 40 mL.
20 μL of commercial solution of calpain was diluted with the digestion solution to a total volume of 200 μL.
The inhibitor was dissolved in DMSO. Each inhibitor was assayed at 7 different concentrations between 10 nM and 200 μM.
All the data were obtained measuring the variation in fluorescence with time. The use of a multi-cell device and Eppendorf multi-channel pipettes permitted measurement of the variation in fluorescence in up to 64 experiments. In this way, the control experiment and the experiments with the different concentrations of inhibitor was carried out in the same set of measurements. All the experiments were conducted twice.
The control experiment was carried out mixing 180 μL of casein solution and 5 μL of calpain solution. The reaction was initiated by the addition of 10 μL of a 50 μM solution of CaCl2 in water, and the fluorescence was measured from the moment of the addition of Ca^2+ (time=0) and for 250-300 seconds (measuring during 20 kinetic cycles). The variation in fluorescence (ΔF) was represented against time (t). In order to test the effect of DMSO on enzyme activity, additional control experiments were conducted adding DMSO (in the quantities used in the experiments with the inhibitors), with the same result being obtained as in the control experiment.
180 μL of casein solution, 5 μL of calpain solution and 5 μL of inhibitor solution (of variable concentration) were mixed together. […]

Turning to `CC[C@H](C)[C@@H]1NC(=O)c2ccccc2/C1=C/C(=O)NCc1ccccc1` [Compound 15, (S,S,Z)-N-benzyl-2-(3-sec-butyl-1-oxo-2,3-dihydro-1H-isoquinolin-4-yliden)-acetamide], the melting point is 90 to 94 °C. In data set [1], this molecule displayed an IC50 of 140 µM. For the molecule `CC[C@H](C)[C@@H]1NC(=O)c2ccccc2/C1=C/C(=O)Nc1ccccc1-c1ccccc1NC(=O)[C@@H](N)C(C)C` [Compound 22, (S,S,S,Z)-2-amino-N-{2′-[2-(3-sec-butyl-1-oxo-2,3-dihydro-1H-isoquinolin-4-yliden)-acetylamino]-biphenyl-2-yl}-3-methyl-butyramide], the melting point was in the range of 110 to 113 °C. In data set [1], the IC50 is 17 µM. In turn, `CC[C@H](C)[C@@H]1NC(=O)c2ccccc2/C1=C/C(=O)Nc1ccccc1-c1ccccc1NC(=O)[C@@H](N)Cc1ccccc1` [Compound 23, (S,S,S,Z)-2-amino-N-{2′-[2-(3-sec-butyl-1-oxo-2,3-dihydro-1H-isoquinolin-4-yliden)-acetylamino]-biphenyl-2-yl}-3-phenyl-propionamide] displayed an IC50 in data set [1] of 7 µM. With `CC[C@H](C)[C@@H]1NC(=O)c2ccccc2/C1=C/C(=O)OC` [Compound 7, methyl (S,S,Z)-(3-sec-butyl-1-oxo-2,3-dihydro-1H-isoquinolin-4-yliden)-acetate], in data set [1], the IC50 stood at 0.025 µM. Compared with the last molecule, the IC50 is about 280-fold lower. In turn, `CC[C@H](C)[C@@H]1NC(=O)c2ccccc2/C1=C/C(=O)N[C@H](C(=O)N[C@@H](Cc1ccccc1)C(=O)OC)C(C)C` [Compound 27, methyl (S,S,S,S,Z)-2-{2-[2-(3-sec-butyl-1-oxo-2,3-dihydro-1H-isoquinolin-4-yliden)-acetylamino]-3-methyl-butirylamino}-3-phenyl-propionate] returned a melting point of 174 to 176 °C. In data set [1], this molecule showed an IC50 of 0.626 µM.

`CC[C@H](C)[C@@H]1NC(=O)c2ccccc2/C1=C/C(=O)OCc1ccccc1` [Compound 11, benzyl (S,S,Z)-(3-sec-butyl-1-oxo-2,3-dihydro-1H-isoquinolin-4-yliden)-acetate] showed a melting point of 53 to 54 °C. In data set [1], this molecule came in with an IC50 of 124 µM.

In turn, `CC[C@H](C)[C@@H]1NC(=O)c2ccccc2/C1=C/C(=O)Nc1ccccc1-c1ccccc1N` [Compound 17, (S,S,Z)-N-(2′-amino-biphenyl-2-yl)-2-(3-sec-butyl-1-oxo-2,3-dihydro-1H-isoquinolin-4-yliden)-acetamide] yielded an IC50 in data set [1] of 0.086 µM. In turn, `CC[C@H](C)[C@@H]1NC(=O)c2ccccc2/C1=C/C(=O)OCc1ccc(COC(=O)/C=C2/c3ccccc3C(=O)N[C@H]2[C@@H](C)CC)cc1` [Compound 14] displayed a melting point of 213 to 215 °C. Besides, the IC50 in data set [1] came out at 5 µM. The matching figures for `CC[C@H](C)[C@@H]1NC(=O)c2ccccc2/C1=C/C(=O)Nc1cccc(C(C)=O)c1` [Compound 16, (S,S,Z)-N-(3-acetyl-phenyl)-2-(3-sec-butyl-1-oxo-2,3-dihydro-1H-isoquinolin-4-yliden)-acetamide]: 147 to 151 °C and 130 µM.

As for `CCC(C)C1NC(=O)c2ccccc2/C1=C/C(=O)OC/C=C\COC(=O)/C=C1/c2ccccc2C(=O)N[C@H]1[C@@H](C)CC` (stereo partly shown) [Compound 12], the melting point lay within 79 to 81 °C. In data set [1], the IC50 was determined as 85 µM. In the case of `CC[C@H](C)[C@@H]1NC(=O)c2ccccc2/C1=C/C(=O)Nc1ccccc1-c1ccccc1NC(=O)[C@@H](NC(=O)OCC1c2ccccc2-c2ccccc21)C(C)C` [Compound 19, (S,S,S,Z)-9H-fuorene-9-ylmethyl (1-{2′-[2-(3-sec-butyl-1-oxo-2,3-dihydro-1H-isoquinolin-4-yliden)-acetylamino]-biphenyl-2-ylcarbamoyl}-2-methyl-propyl)-carbamate], the melting point was in the range of 133 to 135 °C. In data set [1], this molecule had an IC50 of 100 µM.

`CC[C@H](C)[C@@H]1NC(=S)c2ccccc2/C1=C/C(=O)O` [Compound 29, (S,S,Z)-(3-sec-butyl-1-thioxo-2,3-dihydro-1H-isoquinolin-4-yliden)-acetic acid] displayed a melting point of 193 to 196 °C. `CC[C@H](C)[C@H](N)C(=O)Nc1ccccc1-c1ccccc1NC(=O)/C=C1/c2ccccc2C(=O)N[C@H]1[C@@H](C)CC` [Compound 24, (S,S,S,S,Z)-2-amino-N-{2′-[2-(3-sec-butyl-1-oxo-2,3-dihydro-1H-isoquinolin-4-yliden)-acetylamino]-biphenyl-2-yl}-3-methyl-pentanamide] came in with an IC50 in data set [1] of 50 µM. With `CCCCOC(=O)/C=C1/c2ccccc2C(=O)N[C@H]1[C@@H](C)CC` [Compound 10, 1-butyl (S,S,Z)-(3-sec-butyl-1-oxo-2,3-dihydro-1H-isoquinolin-4-yliden)-acetate], the melting point was in the range of 110 to 112 °C.

In turn, `CC[C@H](C)[C@@H]1NC(=O)c2ccccc2/C1=C/C(=O)O` [Compound 8, (S,S,Z)-(3-sec-butyl-1-oxo-2,3-dihydro-1H-isoquinolin-4-yliden)-acetic acid] showed a melting point of 215 to 216 °C.

For the molecule `CC[C@H](C)[C@H](NC(=O)/C=C1/c2ccccc2C(=S)N[C@H]1[C@@H](C)CC)C(=O)N[C@H](C(=O)OC)[C@@H](C)CC` [Compound 30, methyl (S,S,S,S,S,S,Z)-2-{2-[2-(3-sec-butyl-1-thioxo-2,3-dihydro-1H-isoquinolin-4-yliden)-acetylamino]-3-methyl-pentanoylamino}-3-methyl-pentanoate], the melting point was in the range of 178 to 181 °C. `CC[C@H](C)[C@H](NC(=O)/C=C1/c2ccccc2C(=O)N[C@H]1[C@@H](C)CC)C(=O)N[C@H](C(=O)OC)[C@@H](C)CC` [Compound 25, methyl (S,S,S,S,S,Z)-2-{2-[2-(3-sec-butyl-1-oxo-2,3-dihydro-1H-isoquinolin-4-yliden)-acetylamino]-3-methyl-pentanoylamino}-3-methyl-pentanoate] registered an IC50 in data set [1] of 0.447 µM.
